According to ChEMBL document CHEMBL1127162, “1,4-Diacylpiperazine-2-(S)-[(N-aminoalkyl)carboxamides] as novel, potent substance P receptor antagonists” (Bioorg Med Chem Lett, 1993):

Target: Substance-P receptor (Homo sapiens, UniProt P25103)
Test: Inhibition of [125I]-Substance P binding to human NK1 receptors in CHO cells
Type: cell-based

Chain of Substance-P receptor (P25103 whole entry): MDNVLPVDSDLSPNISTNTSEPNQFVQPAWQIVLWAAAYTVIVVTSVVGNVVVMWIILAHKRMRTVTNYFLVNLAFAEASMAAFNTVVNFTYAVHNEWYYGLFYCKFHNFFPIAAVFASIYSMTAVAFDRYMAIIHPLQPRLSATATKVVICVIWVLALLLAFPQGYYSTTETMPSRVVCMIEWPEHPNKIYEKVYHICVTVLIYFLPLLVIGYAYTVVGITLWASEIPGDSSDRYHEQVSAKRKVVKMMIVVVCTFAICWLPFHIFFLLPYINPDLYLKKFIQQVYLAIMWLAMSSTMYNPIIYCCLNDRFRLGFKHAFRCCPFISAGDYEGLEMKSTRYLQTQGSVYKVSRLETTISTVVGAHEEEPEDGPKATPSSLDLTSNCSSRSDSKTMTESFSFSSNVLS

Row | SMILES | IC50
1 | CCCCCN(CCCCC)C(=O)N1CCN(C(=O)N(c2ccccc2)c2ccccc2)[C@H](C(=O)NCC(=O)O)C1 | 597 nM
2 | CCCCCN(CCCCC)C(=O)N1CCN(C(=O)N(c2ccccc2)c2ccccc2)[C@H](C(=O)NCCNC(C)=O)C1 | 140 nM
3 | CCCCCN(CCCCC)C(=O)N1CCN(C(=O)N(c2ccccc2)c2ccccc2)CC1 | 500 nM
4 | CCCCCN(CCCCC)C(=O)N1CCN(C(=O)N(c2ccccc2)c2ccccc2)[C@H](C(=O)NCCNCc2ccccc2OC)C1 | 9 nM
5 | CCCCCN(CCCCC)C(=O)N1CCN(C(=O)N(c2ccccc2)c2ccccc2)[C@H](C(=O)NCCCN(CC)CC)C1 | 41 nM
6 | CCCCCN(CCCCC)C(=O)N1CCN(C(=O)N(c2ccccc2)c2ccccc2)[C@H](C(=O)NCCN(CC)CC)C1 | 11 nM
7 | CCCCCN(CCCCC)C(=O)N1CCN(C(=O)N(c2ccccc2)c2ccccc2)[C@H](C(=O)N(C)CCN(C)Cc2cc(C(F)(F)F)cc(C(F)(F)F)c2)C1 | 1080 nM
8 | CCCCCN(CCCCC)C(=O)N1CCN(C(=O)N(c2ccccc2)c2ccccc2)[C@H](CO)C1 | 280 nM
9 | CCCCCN(CCCCC)C(=O)N1CCN(C(=O)N(c2ccccc2)c2ccccc2)[C@H](C(=O)NCCN(C)Cc2ccccc2OC)C1 | 9 nM
10 | CCCCCN(CCCCC)C(=O)N1CCN(C(=O)N(c2ccccc2)c2ccccc2)[C@H](C(=O)NCCOC)C1 | 267 nM
11 | CCCCCN(CCCCC)C(=O)N1CCN(C(=O)N(c2ccccc2)c2ccccc2)[C@H](C(=O)NCCN(C(C)C)C(C)C)C1 | 217 nM

Now from value to compound:

Row | IC50 | SMILES
12 | 17 nM | CCCCCN(CCCCC)C(=O)N1CCN(C(=O)N(c2ccccc2)c2ccccc2)[C@H](C(=O)N(C)CCN(C)Cc2ccccc2OC)C1
13 | 930 nM | CCCCCN(CCCCC)C(=O)N1CCN(C(=O)N(c2ccccc2)c2ccccc2)[C@H](C(=O)N(C)CCN(C)C)C1
14 | 3000 nM | CCCCCN(CCCCC)C(=O)N1CCN(C(=O)N(c2ccccc2)c2ccccc2)[C@@H](C(=O)O)C1
15 | 57 nM | CCCCCN(CCCCC)C(=O)N1CCN(C(=O)N(c2ccccc2)c2ccccc2)[C@H](C(=O)NCCN)C1
16 | 200 nM | CCCCCN(CCCCC)C(=O)N1CCN(C(=O)N(c2ccccc2)c2ccccc2)[C@H](C(=O)N(C)CCN(C)Cc2cc(C)cc(C)c2)C1
17 | 290 nM | CCCCCN(CCCCC)C(=O)N1CCN(C(=O)N(c2ccccc2)c2ccccc2)[C@H](C(=O)N(C)CCN(C)Cc2ccccc2)C1
18 | 55 nM | CCCCCN(CCCCC)C(=O)N1CCN(C(=O)N(c2ccccc2)c2ccccc2)[C@H](C(=O)NCCN(C)C)C1
19 | 130 nM | CCCCCN(CCCCC)C(=O)N1CCN(C(=O)N(c2ccccc2)c2ccccc2)[C@H](C(=O)O)C1
